These results are taken from patent US12459940B2, “Oxazole compound as multi-targeted inhibitor of IRAK4 and BTK” (SHANGHAI FOSUN PHARMACEUTICAL INDUSTRIAL DEVELOPMENT CO., …, priority 2019, dated 2025).

Where two headings read alike, the source gives them in different places.

Assay [1] addresses T1, human IRAK4 (Homo sapiens, UniProt Q9NWZ3).
T1 construct: purchased Reaction Biology Corp
T1 sequence (Q9NWZ3 1-460): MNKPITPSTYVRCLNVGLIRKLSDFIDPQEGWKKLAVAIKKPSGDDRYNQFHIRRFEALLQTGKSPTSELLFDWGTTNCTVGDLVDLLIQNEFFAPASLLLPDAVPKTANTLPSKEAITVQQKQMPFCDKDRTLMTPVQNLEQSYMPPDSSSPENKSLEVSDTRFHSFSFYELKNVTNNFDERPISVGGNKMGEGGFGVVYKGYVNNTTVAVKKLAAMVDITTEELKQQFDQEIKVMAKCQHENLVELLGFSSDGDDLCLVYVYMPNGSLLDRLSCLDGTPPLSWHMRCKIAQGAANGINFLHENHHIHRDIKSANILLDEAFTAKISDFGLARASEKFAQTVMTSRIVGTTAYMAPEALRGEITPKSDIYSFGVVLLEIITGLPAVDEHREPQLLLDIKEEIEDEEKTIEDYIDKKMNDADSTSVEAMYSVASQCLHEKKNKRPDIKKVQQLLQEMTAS
The experiment in a line: In vitro IRAK4 kinase activity, 33P isotope-labeled kinase activity assay (Reaction Biology Corp). It counts as biochemical. As for the experimental part:
The IC50 values were determined using ^33P isotope-labeled kinase activity assay (Reaction Biology Corp) to evaluate the inhibitory ability of the tested compounds on human IRAK4.
(§1) Buffer conditions: 20 mM Hepes (pH 7.5), 10 mM MgCl2, 1 mM EGTA, 0.02% Brij35, 0.02 mg/mL BSA, 0.1 mM Na3VO4, 2 mM DTT, 1% DMSO.
Test procedure: At room temperature, the tested compound was dissolved in DMSO to prepare a 10 mM solution for later use. The substrate was dissolved in a newly prepared buffer solution, and the tested IRAK4 kinase was added thereto and mixed evenly. The DMSO solution dissolved with the tested compound was added to the above reaction mixture mixed evenly using acoustic technique (Echo 550). After incubation for 15 minutes, ^33P-ATP was added to initiate the reaction.

Assay [2] relates to TMD8 human B-cell lymphoma cells. The experiment in a line: TMD-8 cell proliferation inhibition (CellTiter-Glo). The assay is classed as cell-based. The note with it: TMD8, 72 h, treated for 3 days. As for the experimental part:
TMD8 human B-cell lymphoma cells were cultured in a 37° C., 5% CO2 incubator. The composition of medium was RPMI1640 (GIBCO, Cat #22400-089); the supplementary compositions were 10% FBS (Hyclone, Cat #SH30084.03); 1% PenStrep (Thermo, Cat #SV30010).
(§2) The tumor cell lines OCI-LY10 and TMD8 were used to detect the effect of the compound on inhibiting tumor cell proliferation in vitro. The tumor cell line was cultured in a 37° C., 5% CO2 incubator according to the culture conditions shown, and passaged regularly, then the cells in the logarithmic growth phase were taken, counted, and spread in a 96-well plate (the cells in each well were adjusted to an appropriate concentration, a total of […] per well was added). After incubating overnight in a 37° C., 5% CO2 incubator, drugs with different concentration gradients (10 μL of drug solution was added) were added and treated for 3 days, then 50 μL of CellTiter-Glo working solution was added to each well, and the cell plate was wrapped with aluminum foil to avoid light. The culture plate was shaken on an orbital shaker for 2 minutes to induce cell lysis, and placed at room temperature for 10 minutes to stabilize the luminescence signal, then the luminescence signal was detected on the 2104 EnVision plate reader.
(§3) The Inhibition rate (IR) of the tested compound was calculated using the following formula: IR (%)=(1−(RLU compound−RLU blank control)/(RLU solvent control−RLU blank control))*100%.
(§4) The inhibition rates of different concentrations of the compounds were calculated in Excel, and then the inhibition curves were made by GraphPad Prism software and the related parameters were calculated, including the minimum inhibition rate, the maximum inhibition rate and IC50.

Assay [3] has as its target T2, human BTK (Homo sapiens, UniProt Q06187).
T2 construct: purchased Reaction Biology Corp
Briefly: In vitro BTK kinase activity, 33P isotope-labeled kinase activity assay (Reaction Biology Corp). It counts as biochemical. The conditions noted are these: 33P-ATP, 2 hours at room temperature. The procedure:
The IC50 values were determined using ^33P isotope-labeled kinase activity assay (Reaction Biology Corp) to evaluate the inhibitory ability of the tested compounds on human BTK.
as §1
Test procedure: At room temperature, the tested compound was dissolved in DMSO to prepare a 10 mM solution for later use. The substrate was dissolved in a newly prepared buffer solution, and the tested BTK kinase was added thereto and mixed evenly. The compound dissolved in DMSO was added to the kinase reaction mixture through Echo 550 (Acoustic technology; Nanoliter range). After incubation for 20 minutes at room temperature, ^33P-ATP was added to initiate the reaction. The reaction was carried out at room temperature for 2 hours, and the radioactivity of the reaction liquid point was detected by filtration-binding method with P81 ion exchange filter paper. The kinase activity data were expressed by comparing the kinase activity of the group containing the tested compound with the kinase activity of the blank group (only containing DMSO), and the IC50 value was obtained by curve fitting by Prism4 software (GraphPad), the experimental results are shown in Table 10.

Assay [4] concerns TNF-α production in THP-1 cells. The experiment in a line: THP-1 cytological TNFa ELISA assay (LPS-stimulated). The conditions noted are these: Homo sapiens, TNF-α in culture supernatant, 150 ng/mL LPS, 18 hours. The assay is classed as cell-based. The procedure:
THP-1 human acute […] leukemia cells were purchased from ATCC (Cat #TIB-202) and cultured at 37° C. in 5% CO2 incubator. The composition of medium was RPMI1640 (Gibco, Cat #22400-105), and the supplementary compositions were 10% FBS (Gibco, Cat #10091148); 1% PenStrep (Gibco, Cat #15140); 0.05 mM 2-Mercaptoethanol (Sigma, Cat #M6250).
TNF-α Elisa kit was used to detect the content of TNF-α in cell culture supernatant samples. TNF-α was produced by stimulating THP-1 cells with 150 ng/mL LPS (Sigma, Cat #L6529).
THP-1 cells cultured normally at logarithmic growth stage were seeded in a 96-well plate (Corning #3599) at a certain concentration (1*10^5/100 μL) and then put into a cell incubator for incubation. After two hours, 16.7 μL of different concentrations of the compound to be tested (8*final concentration) were added and incubated in an incubator. After one hour, 16.7 μL of 1200 ng/mL LPS was added and incubated in an incubator. After 18 hours, the culture supernatant samples were collected by centrifugation, and the content of TNF-α could be detected by TNF-α Elisa kit. Finally, OD signals (OD450-OD570) were read on envision board reader.
The OD450-OD570 signal value was converted into a percentage inhibition rate. Inhibition rate %=(ZPE−sample)/(ZPE−HPE)*100.
“HPE” refers to the OD450-OD570 signal value of the control well without LPS stimulated cells, and “ZPE” refers to the OD450-OD570 signal value of the control well with LPS stimulated cells. The IC50 value of the compound was calculated by XLFit in the excel add-in. Y=Bottom+(Top−Bottom)/(1+(IC50/X)^HillSlope). Equation: […]

In assay [5] the test system is OCI-LY10 human B-cell lymphoma cells. The experiment in a line: OCI-LY10 cell proliferation inhibition (CellTiter-Glo). The assay is classed as cell-based. The conditions noted are these: OCI-Ly10, 72 h, treated for 3 days. The procedure: OCI-LY10 human B-cell lymphoma cells were cultured in a 37° C., 5% CO2 incubator. The composition of medium was IMDM (GIBCO, Cat #12440053); the supplementary compositions were 20% FBS (Hyclone, Cat #SH30084.03); 1% PenStrep (Thermo, Cat #SV30010).
as §2, §3, §4

Assay [6] concerns OCI-LY3 cell line. Briefly: OCI-LY3 cell proliferation inhibition (CTG). It counts as cell-based. The conditions noted are these: Homo sapiens, incubated for 72 hours. As for the experimental part: The tumor cell line used in this experiment was provided by Nanjing Cobioer Biotechnology Co., Ltd. See Table 13 below for specific information.
The tumor cell lines OCI-LY3 were used to detect the effect of the compound on inhibiting tumor cell proliferation in vitro. The OCI-LY3 cell line was cultured in the corresponding medium at 37° C. and 5% CO2, and the logarithmic growth phase cells were used in the experimental plating. The cells were collected and centrifuged at 800 rpm for 5 minutes, and the culture medium was re-suspended and spread in a 96-well plate. After incubating overnight in a 37° C., 5% CO2 incubator, the cells with different concentration gradients (10 μL of prepared diluent of the tested compound) were incubated for 72 hours, and the cell culture plates were incubated with CTG reagent at room temperature and away from light for 30 minutes, and then recovered to room temperature. 100 μL/hole of CTG solution was added into the biosafety cabinet away from light, and the plate shaker was shaken and mixed evenly away from light for 2 minutes, and incubated at room temperature away from light for 10 minutes. The luminescence values were read and recorded using the Perkin Elmer Envision 2104 MuLtilabel Reader.
The results of luminescence values measured at each drug concentration were normalized with the luminescence values of the blank control group, and the ratio of this value to the DMSO group was taken as the cell inhibition rate (%). Using GraphPad software, the logarithm of drug concentration (log drug concentration) versus inhibition rate was plotted, and the software automatically fitted and calculated IC50 value and 95% confidence limit value by log (inhibitor) vs. normalized response algorithm of nonlinear regression.

For assay [7], the system named is human B-cell lymphoma OCI-LY10 cell subcutaneous xenograft tumor. Briefly: Human B-cell lymphoma OCI-LY10 cell subcutaneous xenograft tumor mouse model. It counts as in vivo. The conditions noted are these: 10 mpk, 18 days after the start of administration, p<0.001. The procedure: The objective of the experiment was to study the efficacy of WX001 as the test drug on human B-cell lymphoma OCI-LY10 cell subcutaneous xenograft tumor in CB17 SCID mouse model.
OCI-LY10 human B-cell lymphoma cells were cultured in a 37° C., 5% CO2 incubator.
OCI-LY10 tumor cells were cultured and passaged, and 0.2 mL (1×10^7 cells) OCI-LY10 cells were subcutaneously inoculated on the right back of each […] (with Matrigel, volume ratio 1:1), and the group administration was started when the average tumor volume reached 167 mm^3. The health status and death of animals were monitored every day, and routine examinations included observing the effects of tumor growth and drug treatment on daily behaviors of animals, such as behavioral activities, food intake and water intake, weight change (weight was measured twice a week), tumor size (tumor volume was measured twice a week), appearance signs or other abnormal conditions.
The experimental index was to investigate whether the tumor growth was inhibited, delayed or cured. Including the measurement of tumor volume (TV), and the calculation of the compound's anti-tumor efficacy using TGI (%) or the relative tumor proliferation rate T/C (%).
TV=0.5a×b^2, a and b represented the long diameter and short diameter of the tumor, respectively.
T/C %=TRTV/CRTV×100% (TRTV: RTV in treatment group; CRTV: RTV in negative control group). Relative tumor volume (RTV) was calculated according to the results of tumor measurement, and the calculation formula was RTV=Vt/V0, wherein V0 was the average tumor volume measured at the time of group administration (i.e., d0), Vt was the average tumor volume at a certain measurement, and TRTV and CRTV were the data taken at the same day.

T2 sequence (Q06187 whole entry): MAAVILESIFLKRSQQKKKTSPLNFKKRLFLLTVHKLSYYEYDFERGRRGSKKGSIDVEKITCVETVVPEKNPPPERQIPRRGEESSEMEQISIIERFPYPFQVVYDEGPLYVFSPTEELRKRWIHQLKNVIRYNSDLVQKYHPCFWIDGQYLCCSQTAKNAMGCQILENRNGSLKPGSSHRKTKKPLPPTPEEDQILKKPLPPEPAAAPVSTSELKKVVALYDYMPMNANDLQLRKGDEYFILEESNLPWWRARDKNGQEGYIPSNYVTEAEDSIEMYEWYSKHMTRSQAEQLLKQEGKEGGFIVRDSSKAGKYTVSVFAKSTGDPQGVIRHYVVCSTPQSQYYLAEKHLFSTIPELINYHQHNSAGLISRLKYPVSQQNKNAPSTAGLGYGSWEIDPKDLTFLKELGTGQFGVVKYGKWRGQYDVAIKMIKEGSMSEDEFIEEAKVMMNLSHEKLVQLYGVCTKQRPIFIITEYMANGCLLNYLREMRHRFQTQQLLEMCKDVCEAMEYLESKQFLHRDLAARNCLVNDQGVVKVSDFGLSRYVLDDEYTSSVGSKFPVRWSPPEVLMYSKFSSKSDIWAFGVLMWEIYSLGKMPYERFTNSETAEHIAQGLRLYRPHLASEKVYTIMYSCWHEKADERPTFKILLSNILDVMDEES

Turning to `Cc1cc(-c2nc(C(=O)Nc3cn4cc(CCC(=O)O)nc4cc3N3CCC(C)(C)CC3)co2)ccn1` [WX016], the IC50 in assay [1] amounted to 0.9 nM; in assay [2], 221 nM; in assay [3], 8.9 nM; in assay [4] it was 170 nM; in assay [5], 466 nM.

For `Cc1cc(-c2nc(C(=O)Nc3cn4cc(CCC(C)(C)O)nc4cc3-c3ccccc3)co2)ccn1` [WX021], the IC50 in assay [1] came to 0.5 nM; in assay [2], 215 nM; in assay [3], 13.9 nM; in assay [4], 15 nM; in assay [5] it was 171 nM.

Consider `Cc1cc(-c2nc(C(=O)Nc3cn4cc(CCC(C)(C)O)nc4cc3-c3ccccc3F)co2)ccn1` [WX024], for which the IC50 was determined as 0.7 nM in assay [1], 30.5 nM in assay [3], 13 nM in assay [4] and 208 nM in assay [5].

Consider `Cc1cc(-c2nc(C(=O)Nc3cn4cc(C(C)(C)O)nc4cc3N3CCCCC3)co2)ccn1` [WX040], for which the IC50 in assay [1] turned out to be 1.2 nM; in assay [3] it was 3.3 nM; in assay [4] it was 38 nM; in assay [6] it was 283 nM; in assay [5] it was 87 nM.

For `Cc1cc(-c2nc(C(=O)Nc3cn4cc(CCC(C)(C)O)nc4cc3N3CCC(C(C)(C)O)CC3)co2)ccn1` [WX045], the IC50 in assay [1] (33P-ATP, 120 minutes at room temperature, read-out: IRAK4/IC50) is 3.4 nM; in assay [3] it was 28.6 nM; in assay [6] it was 270 nM; in assay [5], 77 nM.

In assay [7], `C=CC(=O)N1CCC[C@@H](n2nc(-c3ccc(Oc4ccccc4)cc3)c3c(N)ncnc32)C1` [Ibrutinib, reference compound] had a T/C value of 39% and a TGI value of 85%.

For `Cc1cc(-c2nc(C(=O)Nc3cn4cc(CCC(C)(C)O)nc4cc3-c3cccc(F)c3)co2)ccn1` [WX025], the IC50 in assay [1] stood at 0.7 nM; in assay [3], 21.8 nM; in assay [4], 21 nM; in assay [5], 94 nM.
